Legend:
[1] = 298.15 K, 101.33 kPa, Liquid
[2] = wn = mass fraction of the nth substance listed; details: 101 kPa, Liquid; for viscosity: Capillary tube (Ostwald / Ubbelohde) method; for mass density: Pycnometric method

CCCCOCCO [2-butoxyethan-1-ol]
[1]
Details	mass density [kg/m3]	viscosity [mPa·s]
Capillary tube (Ostwald / Ubbelohde) method	–	2.782
Pycnometric method	896.16	–

CCCCOCCO [2-butoxyethan-1-ol] + O
[2]
Details	mass density, 298.15 K [kg/m3]	mass density, 303.15 K [kg/m3]	mass density, 308.15 K [kg/m3]	mass density, 313.15 K [kg/m3]	viscosity, 298.15 K [mPa·s]	viscosity, 303.15 K [mPa·s]	viscosity, 308.15 K [mPa·s]	viscosity, 313.15 K [mPa·s]
w1 = 0.2	986.46	982.92	980.38	977.64	1.849	1.622	1.465	1.302
w1 = 0.4	967.1	964.31	961.45	958.48	2.998	2.635	2.334	2.054
w1 = 0.6	948.1	944.74	941.59	937.57	3.918	3.394	2.921	2.539
w1 = 1	896.16	892.74	888.88	884.29	2.782	2.499	2.206	1.946

— the NIST ThermoML archive (doi:10.1021/je4004405)
